According to patent publication US8404723B2, “3-cyano 5-thiazaheteroaryl-dihydropyridine and the use thereof for the treatment of cardiovascular diseases” (Bayer Intellectual Property GmbH, priority 2006, dated 2013):

Molecular target: T1, human mineralocorticoid receptor (MR) (Homo sapiens, UniProt P08235)
T1 construct: expressed in transfected cells
T1 sequence (P08235 734-984 limits assumed): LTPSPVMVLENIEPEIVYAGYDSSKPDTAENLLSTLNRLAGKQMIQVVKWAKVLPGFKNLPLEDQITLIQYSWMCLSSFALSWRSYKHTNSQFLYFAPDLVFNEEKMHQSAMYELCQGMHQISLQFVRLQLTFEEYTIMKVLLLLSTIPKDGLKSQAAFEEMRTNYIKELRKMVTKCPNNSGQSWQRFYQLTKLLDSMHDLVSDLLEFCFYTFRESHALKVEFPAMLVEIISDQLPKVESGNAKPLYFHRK
Test: Cellular in vitro assay to determine the inhibitory MR activity (GAL4-MR chimera luciferase reporter in CHO K1 cells)
Assay type: cell-based
Conditions: aldosterone as agonist
Excerpt: 1. Cellular In Vitro Assay to Determine the Inhibitory MR Activity and MR Selectivity Compared with Other Steroid Hormone Receptors
Antagonists of the human mineralocorticoid receptor (MR) are identified, and the activity of the compounds described herein is quantified with the aid of a recombinant cell line. The cell is originally derived from a hamster ovary epithelial cell (Chinese Hamster Ovary, CHO K1, ATCC: American Type Culture Collection, Va. 20108, USA).
An established chimera system in which the ligand-binding domains of human steroid hormone receptors are fused to the DNA-binding domain of the yeast transcription factor GAL4 is used in this CHO K1 cell line. The GAL4-steroid hormone receptor chimeras produced in this way are cotransfected and stably expressed with a reporter construct in the CHO cells.
To generate the GAL4-steroid hormone receptor chimeras, the GAL4 DNA binding domain (amino acids 1-147) from the vector pFC2-dbd (from Stratagene) is cloned with the PCR-amplified ligand-binding domains of the mineralocorticoid receptor (MR, amino acids 734-985), of the glucocorticoid receptor (GR, amino acids 443-777), of the progesterone receptor (PR, amino acids 680-933) and of the androgen receptor (AR, amino acids 667-919) into the vector pIRES2 (from Clontech). The reporter construct, which comprises five copies of the GAL4 binding site upstream of a thymidine kinase promoter, leads to expression of firefly-luciferase (Photinus pyralis) after activation and binding of the GAL4-steroid hormone receptor chimeras by the respective specific agonists aldosterone (MR), dexamethasone (GR), progesterone (PR) and dihydrotestosterone (AR).
The MR, GR, PR and AR cells are plated out in medium (Optimem, 2.5% FCS, 2 mM glutamine, 10 mM HEPES) in 96- (or 384- or 1536-) well microtiter plates on the day before the assay and are kept in a cell incubator (96% humidity, 5% v/v CO2, 37° C.). On the day of the assay, the substances to be tested are taken up in the abovementioned medium and added to the cells. About 10 to 30 minutes after addition of the test substances, the respective specific agonists of the steroid hormone receptors are added. After a further incubation time of 5 to 6 hours, the luciferase activity is measured with the aid of a video camera. The measured relative light units as a function of the substance concentration result in a sigmoidal stimulation curve. The IC50 values are calculated with the aid of the GraphPad PRISM computer program (Version 3.02).

Structure (SMILES) | IC50 [nM]
CC1=C(C#N)C(c2cccc3ncc(C)cc23)C(c2nc(C)cs2)=C(C)N1 (stereo not shown) [Example 18, 2,6-Dimethyl-4-(3-methylquinolin-5-yl)-5-(4-methyl-1,3-thiazol-2-yl)-1,4-dihydropyridine-3-carbonitrile] | 278
COc1cc(C#N)ccc1C1C(C#N)=C(C)NC(C)=C1c1nc2ccccc2s1 (stereo not shown) [Example 12, 5-(1,3-Benzothiazol-2-yl)-4-(4-cyano-2-methoxyphenyl)-2,6-dimethyl-1,4-dihydropyridine-3-carbonitrile] | 74
COc1cc(C#N)ccc1C1C(C#N)=C(C(F)(F)F)NC(C)=C1c1nc(C)cs1 (stereo not shown) [Example 3, 4-(4-Cyano-2-methoxyphenyl)-6-methyl-5-(4-methyl-1,3-thiazol-2-yl)-2-(trifluoromethyl)-1,4-dihydropyridine-3-carbonitrile] | 10
COc1cc(C#N)ccc1C1C(C#N)=C(C)NC(C)=C1c1nc(C)cs1 (stereo not shown) [Example 1, 4-(4-Cyano-2-methoxyphenyl)-2,6-dimethyl-5-(4-methyl-1,3-thiazol-2-yl)-1,4-dihydropyridine-3-carbonitrile] | 94
COc1cc(C#N)ccc1C1C(C#N)=C(C)NC(C)=C1c1nnc(C)s1 (stereo not shown) [Example 24, 4-(4-Cyano-2-methoxyphenyl)-2,6-dimethyl-5-(5-methyl-1,3,4-thiadiazol-2-yl)-1,4-dihydropyridine-3-carbonitrile] | 320
CCc1cnc(C2=C(C)NC(C)=C(C#N)C2c2ccc(C#N)cc2OC)s1 (stereo not shown) [Example 23, 4-(4-Cyano-2-methoxyphenyl)-5-(5-ethyl-1,3-thiazol-2-yl)-2,6-dimethyl-1,4-dihydropyridine-3-carbonitrile] | 18
CC1=C(C#N)C(c2cccc3c(=O)cc(C)oc23)C(c2nc(C)cs2)=C(C)N1 (stereo not shown) [Example 4, 2,6-Dimethyl-4-(2-methyl-4-oxo-4H-chromen-8-yl)-5-(4-methyl-1,3-thiazol-2-yl)-1,4-dihydro-pyridine-3-carbonitrile] | 95
